Experimental data: patent US20170348337A1, “MULTIFUNCTIONAL MEMBRANE-ACTIVE AMINOGLYCOSIDE-PEPTIDE CONJUGATES” (priority 2014, published 2017)
Converted amounts (≈) assume the structure as drawn. Where two headings read alike, the source gives them in different places. Residues, ends and D or L forms follow the SMILES beside them. No end group written: not given here. Tobramycin = aminoglycoside, conjugated at the peptide N-terminus; Neomycin = aminoglycoside, conjugated at the peptide N-terminus

Experiments:
[1] = cited from earlier work
E. coli [2] = assay: antimicrobial activity (MIC) of P-L-A conjugates; assay type: cell-based
P. aeruginosa = assay: antimicrobial activity (MIC) of P-L-A conjugates; assay type: cell-based; settings: for MIC: stationary
NIH/3T3 cells [3] = assay: LIVE/DEAD viability/cytotoxicity assay; settings: 100 μM; 8 h
Method: The effect of Pentobra on the plasma membrane integrity was investigated on NIH/3T3 cells using the Live/Dead® Viability/Cytotoxicity Kit (Molecular Probes). Briefly, 50,000 cells/well were incubated in a 24-well plate and treated with 100 μM of tobramycin, Pen peptide or Pentobra for 8 h at 37° C. Then, the cells were stained with 100 μL of the live/Dead assay reagents (2 μM calcein and 4 μM ethidium homodimer), and incubated at 37° C. for 20 min. The labeled cells were counted using a Zeiss Axiovert Observer Z1 inverted fluorescent microscope (at least 160 cells were counted for each treatment).
In addition, the effect of Pentobra on the cell membrane integrity was evaluated using the LIVE/DEAD® cell viability assay. This assay simultaneously determined intracellular esterase activity and plasma membrane integrity using two distinct dyes: a) calcein, a membrane permeable polyanionic dye that must be hydrolyzed by intracellular esterases (dead cells lack active esterases) to produce a green fluorescence and b) ethidium homodimer, a membrane impermeable red fluorescent dye that can only penetrate cells with compromised membranes.

NIH/3T3 cells [4] = assay: CellTox Green cytotoxicity assay; assay type: cell-based, mouse; settings: concentrations up to 100 μM; 8 h incubation
Method: CellTox™ Green assay. The cytotoxicity of Pentobra was investigated on NIH/3T3 cells (ATCC) using CellTox™ Green assay (Promega, United States of America). Cells were seeded in a 96 well plate at a concentration of 2.5×10^3 cells/well. 100 μL of DMEM media were added to each well containing 0.2% CellTox green dye and varying concentrations of Pentobra, CPP or tobramycin and incubated for 8 and 24 h before the plate was read using an excitation wavelength of 485 nm and emission filter of 535 nm on a microplate reader (Beckman Coulter, DTX 880 Multimode Detector). A lysis solution, known to be toxic to the cells, was used as a positive control which represented the maximum dead cell signal obtainable from non-proliferating cells. The untreated cell population represented the maximal negative control signal obtainable at the end of an exposure period. The fluorescence values were normalized (from positive and negative controls) and converted to corresponding viability values.

[5] = test system: Peripheral Blood Mononuclear Cells (PBMCs); assay: cell viability assay (MTT section, CellTiter-GLO); assay type: cell-based, human; settings: 26 μM; over 72 hr
Method: (§1) Cell proliferation experiments were performed in 96-well plates (5 replicates). 26 μM of Pentobra and Tobramycin treatments were initiated at 24 hours post-seeding for 3 days. Stocks and dilutions of PLX4032/vemurafenib (Plexxikon) and AZD6244/selumetenib (Selleck Chemicals) were made in dimethyl sulfoxide (DMSO). Three cell types (PBMCs, Keratinocytes and Sebocytes cell lines) were tested. Cells were quantified using CellTiter-GLO Luminescence (Promega) following the manufacturer's recommendations.

keratinocytes = assay: cell viability assay (MTT section, CellTiter-GLO); assay type: cell-based, human; settings: 26 μM; over 72 hr
Method: as §1

sebocytes = assay: cell viability assay (MTT section, CellTiter-GLO); assay type: cell-based, human; settings: 26 μM; over 72 hr
Method: as §1

Acinetobacter (AcB) = assay: microbe, parasite or virus in culture; assay type: cell-based; settings: isolate AcB, PM1434
From the text: (§2) Pentobra was screened against a broad panel of microbial pathogens, including strains of E. coli, MRSA, Klebsiella (Kleb), Acinetobacter (AcB), Vancomycin-Sensitive Enterococci (VSE) and Vancomycin-Resistant Enterococci (VRE), and specifically including E. faecalis samples. […] The experimenter reported the minimum inhibitory concentration (MIC) in mass units per unit volume (μg/mL) for each compound, and MIC data were converted into molar concentrations (μM) due to the large difference between the molecular weight of tobramycin (467.5 g/mol) and Pentobra (2277 g/mol).

E. coli [6] = assay: microbe, parasite or virus in culture; assay type: cell-based
From the text: as §2

Klebsiella (Kleb) = assay: microbe, parasite or virus in culture; assay type: cell-based; settings: isolate Kleb, W6921701-1
From the text: as §2

MRSA = assay: microbe, parasite or virus in culture; assay type: cell-based; settings: isolate MRSA
From the text: as §2

[7] = test system: Vancomycin-Resistant Enterococci (VRE); assay: microbe, parasite or virus in culture; assay type: cell-based
From the text: as §2

[8] = test system: Vancomycin-Sensitive Enterococci (VSE); assay: organism not typed; assay type: cell-based
From the text: as §2

S. aureus = assay: antimicrobial activity (MIC) of P-L-A conjugates; assay type: cell-based
E. coli persisters = assay: E. coli persister killing assay, pentobra plus adjuvant; assay type: cell-based; settings: 10 mM arabinose; 1.5 hours
Method: Bacterial persisters were prepared essentially as described above, by growing an E. coli culture for 18-24 hours, at which point 100 μg/ml ampicillin was added for a 4-hour incubation to kill non-persisters. The cells were washed with M9 salts without carbon source, and subsequently diluted with M9 salts to an appropriate cell count for the killing assay. Approximately 10^6 E. coli cells per well were placed in a total volume of 100 μl in a 96-well plate on a shaker at 37° C. for 1.5 hours in the presence of each the following, respectively: Pentobra, Pentobra-plus-glucose (as adjuvant), tobramycin, tobramycin-plus-glucose (as adjuvant). A concentration series was used with 50, 25, 12.5, 6.25 and 0 μM for pentobra or tobramycin, and correspondingly 10, 5, 2.5, 1.25 and 0 mM for glucose. Incubation, dilution, and plating for colony assay determination were as described above. In a separate experiment, approximately 10^6 E. coli cells per well were placed in a total volume of 100 μl in a 96-well plate at 37° C. for 1.5 hours in the presence of each the following, respectively: pentobra, pentobra-plus-10 mM arabinose (as adjuvant), tobramycin, tobramycin-plus-10 mM arabinose (as adjuvant).
Persister cells were isolated and experiments to test for bactericidal activity were performed as described in Example 7 above.

NC[C@H]1O[C@H](O[C@H]2[C@H](O)[C@@H](O[C@H]3O[C@H](CO)[C@@H](O)[C@H](N)[C@H]3O)[C@H](N)C[C@@H]2N)[C@H](O)[C@@H](O)[C@@H]1O [kanamycin]
octanol→water partition coefficient Log P ([1]; aminoglycosides): −4.55

OC[C@H]1O[C@H](O[C@H]2O[C@H](CO)[C@@H](O)[C@H](O)[C@H]2O)[C@H](O)[C@@H](O)[C@@H]1O [trehalose]
octanol→water partition coefficient Log P ([1]; sugars, Mazzobre et. al. 2005): −3.77

Amphi Pentobra: Tobramycin-GWIRNQFRKIWQR [SEQ ID NO: 81], N-terminal conjugation
MIC (μM) E. coli (mid-log) (E. coli [2]): 3.12 μM
MIC (μM) P. aeruginosa (mid-log) (P. aeruginosa): 12.5 μM

OC[C@H]1O[C@@](CO)(O[C@H]2O[C@H](CO)[C@@H](O)[C@H](O)[C@H]2O)[C@@H](O)[C@@H]1O [sucrose]
octanol→water partition coefficient Log P ([1]; sugars, Mazzobre et. al. 2005): −3.30

Reverse Pentobra: Tobramycin-GWRRNQFWIKIQR [SEQ ID NO: 95], N-terminal conjugation
MIC (μM) E. coli (mid-log) (E. coli [2]): 3.12 μM
MIC (μM) P. aeruginosa (mid-log) (P. aeruginosa): 12.5 μM

NeoGP11: Neomycin-GPWWFKWPRLI [SEQ ID NO: 123], N-terminal conjugation
MIC (μM) P. aeruginosa (mid-log) (P. aeruginosa): 12.5 μM
MIC (P. aeruginosa): 50 µM

RQIKIWFQNRRW [Pen peptide]
cytotoxicity (percentage of red stained cells) (NIH/3T3 cells [3]): no statistical difference in cytotoxicity

gentamycin
octanol→water partition coefficient Log P ([1]; aminoglycosides): −2.47

NCC[C@H](O)C(=O)N[C@@H]1C[C@H](N)[C@@H](O[C@H]2O[C@H](CN)[C@@H](O)[C@H](O)[C@H]2O)[C@H](O)[C@H]1O[C@H]1O[C@H](CO)[C@@H](O)[C@H](N)[C@H]1O [amikacin]
octanol→water partition coefficient Log P ([1]; aminoglycosides): −3.34

CC[C@H](C)[C@H](NC(=O)[C@H](CCCCN)NC(=O)[C@@H](NC(=O)[C@H](CCC(N)=O)NC(=O)[C@H](CCCNC(=N)N)NC(=O)CCC(=O)OC[C@H]1O[C@H](O[C@@H]2[C@@H](O)[C@H](O[C@H]3O[C@H](CN)[C@@H](O)C[C@H]3N)[C@@H](N)C[C@H]2N)[C@H](O)[C@@H](N)[C@@H]1O)[C@@H](C)CC)C(=O)N[C@@H](Cc1c[nH]c2ccccc12)C(=O)N[C@@H](Cc1ccccc1)C(=O)N[C@@H](CCC(N)=O)C(=O)N[C@@H](CC(N)=O)C(=O)N[C@@H](CCCNC(=N)N)C(=O)N[C@@H](CCCNC(=N)N)C(=O)N[C@@H](Cc1c[nH]c2ccccc12)C(=O)O [Pentobra] (HELM PEPTIDE1{[NC[C@H]1O[C@H](O[C@H]2[C@H](O)[C@@H](O[C@H]3O[C@H](COC(=O)CCC(=O)[*:2])[C@@H](O)[C@H](N)[C@H]3O)[C@H](N)C[C@@H]2N)[C@H](N)C[C@@H]1O].R.Q.I.K.I.W.F.Q.N.R.R.W}$$$$V2.0)
cytotoxic effect (NIH/3T3 cells [4]): did not show any cytotoxic effect
cytotoxicity (percentage of red stained cells) (NIH/3T3 cells [3]): no statistical difference in cytotoxicity
plasma membrane integrity of eukaryotic cells (NIH/3T3 cells [3]): did not induce any loss of plasma membrane integrity
viability [5]: did not affect the viability
viability (keratinocytes): did not affect the viability
viability (sebocytes): did not affect the viability
MIC (Acinetobacter (AcB)): 7 µM (≈ 16 µg/mL)
MIC (E. coli [6]; isolate ATCC 25922, Ecoli (second entry)): 4 µM (≈ 9.12 µg/mL)
MIC (E. coli [6]; isolate ATCC Ecoli, 25922 (first entry)): 2 µM (≈ 4.56 µg/mL)
MIC (E. coli [6]; isolate Ecoli,YD461): 7 µM (≈ 16 µg/mL)
MIC (Klebsiella (Kleb)): 7 µM (≈ 16 µg/mL)
MIC (MRSA; F2806774): 56 µM (≈ 128 µg/mL)
MIC (MRSA; H2867813): >56 µM
MIC ([7]; isolate 24670, VRE^? (second entry)): 14 µM (≈ 31.9 µg/mL)
MIC ([7]; isolate F6541102, VRE): >56 µM
MIC ([7]; isolate H6926031, VRE*): 14 µM (≈ 31.9 µg/mL)
MIC ([7]; isolate M6865034, VRE): 14 µM (≈ 31.9 µg/mL)
MIC ([7]; isolate S3899836, VRE^? (second entry)): 14 µM (≈ 31.9 µg/mL)
MIC ([7]; isolate VRE, 24670): 14 µM (≈ 31.9 µg/mL)
MIC ([7]; isolate VRE, S3899836): 14 µM (≈ 31.9 µg/mL)
MIC ([8]; isolate S4895552, VSE, LZD-R): 14 µM (≈ 31.9 µg/mL)
MIC ([8]; isolate W7171143,VSE): 56 µM (≈ 128 µg/mL)
MIC ([8]; isolate W7214342,VSE): 28 µM (≈ 63.9 µg/mL)
MIC ([8]; isolate X4540299, VSE): 14 µM (≈ 31.9 µg/mL)
MIC (μM) E. coli (mid-log) (E. coli [2]): 6.25 μM
MIC (μM) P. aeruginosa (mid-log) (P. aeruginosa): 6.25-12.5 μM
MIC (P. aeruginosa): 25 µM (≈ 57 µg/mL)
MIC (μM) S. aureus (mid-log) (S. aureus): 25 μM

[H]/N=C(/N)N[C@H]1[C@H](O)[C@@H](O)[C@H](O[C@@H]2O[C@@H](C)[C@](O)(C=O)[C@H]2O[C@@H]2O[C@@H](CO)[C@H](O)[C@@H](O)[C@@H]2NC)[C@@H](N/C(N)=N\[H])[C@@H]1O [streptomycin]
octanol→water partition coefficient Log P ([1]; aminoglycosides): −2.53

neomycin
MIC (P. aeruginosa): 12.5 µM
MIC (μM) S. aureus (mid-log) (S. aureus): 1.56 μM
octanol→water partition coefficient Log P ([1]; aminoglycosides): −3.65

O=C[C@@H](O)[C@H](O)[C@H](O)CO [Arabinose, arabinose]
effect on killing potency of pentobra (E. coli persisters): enhanced pentobra, but to a lesser extent

TobrGW12: Tobramycin-GWRNQIRKGWQR [SEQ ID NO: 135], N-terminal conjugation
MIC (μM) P. aeruginosa (mid-log) (P. aeruginosa): 6.25 μM
MIC (P. aeruginosa): 12.5 µM

NC[C@@H]1O[C@H](O[C@H]2[C@@H](O)[C@H](O[C@@H]3[C@@H](O)[C@H](N)C[C@H](N)[C@H]3O[C@H]3O[C@H](CO)[C@@H](O)[C@H](O)[C@H]3N)O[C@@H]2CO)[C@H](N)[C@@H](O)[C@@H]1O [paromomycin]
octanol→water partition coefficient Log P ([1]; aminoglycosides): −3.27

Neo13: Neomycin-GFHGVKNLARRIL [SEQ ID NO: 109], N-terminal conjugation
MIC (μM) P. aeruginosa (mid-log) (P. aeruginosa): 12.5 μM
MIC (P. aeruginosa): 50 µM
MIC (μM) S. aureus (mid-log) (S. aureus): 12.5 μM
